In the NIST ThermoML archive (doi:10.1016/j.jct.2006.08.009):

Test: mn = molality of the nth substance listed, in mol/kg
Conditions: 350 kPa, Liquid; for apparent molar heat capacity: Extra sensitive DSC

OC[C@@H](O)[C@H](O)[C@H](O)[C@@H](O)CO [dulcitol] + O
Conditions | apparent molar heat capacity [J/K/mol] | mass density [kg/m3]
278.15 K, m1 = 0.0188 | 374 | 1001.19
278.15 K, m1 = 0.0418 | 369 | 1002.77
278.15 K, m1 = 0.0698 | 379.2 | 1004.44
278.15 K, m1 = 0.0986 | 380.1 | 1006.47
278.15 K, m1 = 0.119 | 370.3 | 1007.99
278.15 K, m1 = 0.1492 | 379.2 | 1009.86
283.15 K, m1 = 0.0188 | 394 | 1000.99
283.15 K, m1 = 0.0418 | 389 | 1002.48
283.15 K, m1 = 0.0698 | 397.8 | 1004.2
283.15 K, m1 = 0.0986 | 398.6 | 1006.13
283.15 K, m1 = 0.119 | 388.5 | 1007.58
283.15 K, m1 = 0.1492 | 397.5 | 1009.47
288.15 K, m1 = 0.0188 | 409 | 1000.42
288.15 K, m1 = 0.0418 | 405 | 1001.85
288.15 K, m1 = 0.0698 | 412.3 | 1003.61
288.15 K, m1 = 0.0986 | 413.3 | 1005.5
288.15 K, m1 = 0.119 | 402.7 | 1006.94
288.15 K, m1 = 0.1492 | 412 | 1008.75
293.15 K, m1 = 0.0188 | 423 | –
293.15 K, m1 = 0.0418 | 418 | –
293.15 K, m1 = 0.0698 | 425.3 | –
293.15 K, m1 = 0.0986 | 426.5 | –
293.15 K, m1 = 0.119 | 416.6 | –
293.15 K, m1 = 0.1492 | 425 | –
298.15 K, m1 = 0.0188 | 434 | 998.35
298.15 K, m1 = 0.0418 | 430 | 999.74
298.15 K, m1 = 0.0698 | 436.4 | 1001.5
298.15 K, m1 = 0.0986 | 437.6 | 1003.47
298.15 K, m1 = 0.119 | 428.5 | 1004.74
298.15 K, m1 = 0.1492 | 436.1 | 1006.52
303.15 K, m1 = 0.0188 | 444 | –
303.15 K, m1 = 0.0418 | 439 | –
303.15 K, m1 = 0.0698 | 446 | –
303.15 K, m1 = 0.0986 | 447.4 | –
303.15 K, m1 = 0.119 | 438.9 | –
303.15 K, m1 = 0.1492 | 445.8 | –
308.15 K, m1 = 0.0188 | 453 | 995.36
308.15 K, m1 = 0.0418 | 448 | 996.65
308.15 K, m1 = 0.0698 | 454.4 | 998.44
308.15 K, m1 = 0.0986 | 456 | 1000.21
308.15 K, m1 = 0.119 | 447.9 | 1001.54
308.15 K, m1 = 0.1492 | 454.3 | 1003.38
313.15 K, m1 = 0.0188 | 461 | –
313.15 K, m1 = 0.0418 | 455.7 | –
313.15 K, m1 = 0.0698 | 462.1 | –
313.15 K, m1 = 0.0986 | 463.5 | –
313.15 K, m1 = 0.119 | 456 | –
313.15 K, m1 = 0.1492 | 461.9 | –
318.15 K, m1 = 0.0188 | 468 | 991.52
318.15 K, m1 = 0.0418 | 462.7 | 992.87
318.15 K, m1 = 0.0698 | 468.8 | 994.59
318.15 K, m1 = 0.0986 | 470.3 | 996.35
318.15 K, m1 = 0.119 | 463.3 | 997.6
318.15 K, m1 = 0.1492 | 468.7 | 999.44
323.15 K, m1 = 0.0188 | 475 | –
323.15 K, m1 = 0.0418 | 469 | –
323.15 K, m1 = 0.0698 | 474.9 | –
323.15 K, m1 = 0.0986 | 476.5 | –
323.15 K, m1 = 0.119 | 469.8 | –
323.15 K, m1 = 0.1492 | 474.8 | –
328.15 K, m1 = 0.0188 | 481 | 986.98
328.15 K, m1 = 0.0418 | 474.7 | 988.34
328.15 K, m1 = 0.0698 | 480.5 | 990.01
328.15 K, m1 = 0.0986 | 482.1 | 991.76
328.15 K, m1 = 0.119 | 475.7 | 993.01
328.15 K, m1 = 0.1492 | 480.4 | 994.81
333.15 K, m1 = 0.0188 | 486 | –
333.15 K, m1 = 0.0418 | 479.8 | –
333.15 K, m1 = 0.0698 | 485.6 | –
333.15 K, m1 = 0.0986 | 487.2 | –
333.15 K, m1 = 0.119 | 481 | –
333.15 K, m1 = 0.1492 | 485.5 | –
338.15 K, m1 = 0.0188 | 491 | 981.81
338.15 K, m1 = 0.0418 | 484.5 | 983.19
338.15 K, m1 = 0.0698 | 490.1 | 984.85
338.15 K, m1 = 0.0986 | 491.8 | 986.55
338.15 K, m1 = 0.119 | 486 | 987.85
338.15 K, m1 = 0.1492 | 490.1 | 989.64
343.15 K, m1 = 0.0188 | 495 | –
343.15 K, m1 = 0.0418 | 488.6 | –
343.15 K, m1 = 0.0698 | 494.2 | –
343.15 K, m1 = 0.0986 | 495.9 | –
343.15 K, m1 = 0.119 | 490.4 | –
343.15 K, m1 = 0.1492 | 494.3 | –
348.15 K, m1 = 0.0188 | 499 | 976.1
348.15 K, m1 = 0.0418 | 492.2 | 977.46
348.15 K, m1 = 0.0698 | 497.9 | 979.12
348.15 K, m1 = 0.0986 | 499.6 | 980.85
348.15 K, m1 = 0.119 | 494.4 | 982.09
348.15 K, m1 = 0.1492 | 497.9 | 983.86
353.15 K, m1 = 0.0188 | 502 | –
353.15 K, m1 = 0.0418 | 495.4 | –
353.15 K, m1 = 0.0698 | 501.2 | –
353.15 K, m1 = 0.0986 | 502.9 | –
353.15 K, m1 = 0.119 | 498.1 | –
353.15 K, m1 = 0.1492 | 501.2 | –
358.15 K, m1 = 0.0188 | 504 | 969.86
358.15 K, m1 = 0.0418 | 498.1 | 971.46
358.15 K, m1 = 0.0698 | 503.5 | 972.88
358.15 K, m1 = 0.0986 | 505.2 | 974.54
358.15 K, m1 = 0.119 | 501.3 | 975.86
358.15 K, m1 = 0.1492 | 503.6 | 977.9
363.15 K, m1 = 0.0188 | 506 | –
363.15 K, m1 = 0.0418 | 499.6 | –
363.15 K, m1 = 0.0698 | 504.4 | –
363.15 K, m1 = 0.0986 | 505.7 | –
363.15 K, m1 = 0.119 | 504.1 | –
363.15 K, m1 = 0.1492 | 504.3 | –
368.15 K, m1 = 0.0188 | – | 963.12
368.15 K, m1 = 0.0418 | – | 964.48
368.15 K, m1 = 0.0698 | – | 966.14
368.15 K, m1 = 0.0986 | – | 967.86
368.15 K, m1 = 0.119 | – | 969.19
368.15 K, m1 = 0.1492 | – | 970.84
